# Activity calls are given as the source filed them. The calls are words filed in the database; no cut-off is given here.
# Assays:
# [1] = Displacement of [3H]flumazenil from GABA(A)-BZD receptor in Sprague-Dawley rat cerebral cortex membranes after 40 mins by liquid scintillation counting; assay type: cell membranes, Membrane
# Mus musculus [2] = assay: Hypnotic activity in po dosed fasted C57BL/6N mouse assessed as decrease in latency of pentobarbital-induced sleep administered 45 mins prior to pentobarbital-induction by polysomnographic analysis; assay type: functional, organism-based
# Mus musculus [3] = assay: Hypnotic activity in po dosed fasted C57BL/6N mouse assessed as increase in pentobarbital-induced sleep duration administered 45 mins prior to pentobarbital-induction by polysomnographic analysis; assay type: functional, organism-based
# Mus musculus [4] = assay: Hypnotic activity in fasted C57BL/6N mouse assessed as […] in latency of pentobarbital-induced sleep at 50 mg/kg, po administered 45 mins prior to pentobarbital-induction by polysomnographic analysis; assay type: functional, organism-based; parameters: dose 50 mg/kg
# Mus musculus [5] = assay: Hypnotic activity in fasted C57BL/6N mouse assessed as increase in pentobarbital-induced sleep duration at 50 mg/kg, po administered 45 mins prior to pentobarbital-induction by polysomnographic analysis; assay type: functional, organism-based; parameters: dose 50 mg/kg
# Mus musculus [6] = assay: Hypnotic activity in fasted C57BL/6N mouse assessed as increase in pentobarbital-induced sleep duration at 50 mg/kg, po administered 45 mins prior to pentobarbital-induction coadministered with flumazenil by polysomnographic analysis; assay type: functional, organism-based; parameters: dose 50 mg/kg
# Mus musculus [7] = assay: Hypnotic activity in fasted C57BL/6N mouse assessed as decrease in latency of pentobarbital-induced sleep at 50 mg/kg, po administered 45 mins prior to pentobarbital-induction coadministered with flumazenil by polysomnographic analysis; assay type: functional, organism-based; parameters: dose 50 mg/kg
# Mus musculus [8] = assay: Hypnotic activity in fasted C57BL/6N mouse assessed as increase in pentobarbital-induced sleep duration at 2.5 mg/kg, po administered 45 mins prior to pentobarbital-induction coadministered with flumazenil by polysomnographic analysis; assay type: functional, organism-based; parameters: dose 2.5 mg/kg
# Mus musculus [9] = assay: Hypnotic activity in fasted C57BL/6N mouse assessed as […] in latency of pentobarbital-induced sleep at 10 mg/kg, po administered 45 mins prior to pentobarbital-induction by polysomnographic analysis; assay type: functional, organism-based; parameters: dose 10 mg/kg
# Mus musculus [10] = assay: Hypnotic activity in fasted C57BL/6N mouse assessed as increase in pentobarbital-induced sleep duration at 10 mg/kg, po administered 45 mins prior to pentobarbital-induction by polysomnographic analysis; assay type: functional, organism-based; parameters: dose 10 mg/kg
# Mus musculus [11] = assay: Hypnotic activity in fasted C57BL/6N mouse assessed as increase in pentobarbital-induced sleep duration at 10 mg/kg, po administered 45 mins prior to pentobarbital-induction coadministered with flumazenil by polysomnographic analysis; assay type: functional, organism-based; parameters: dose 10 mg/kg
# Mus musculus [12] = assay: Hypnotic activity in fasted C57BL/6N mouse assessed as decrease in pentobarbital-induced sleep latency at 10 mg/kg, po administered 45 mins prior to pentobarbital-induction coadministered with flumazenil by polysomnographic analysis; assay type: functional, organism-based; parameters: dose 10 mg/kg
# Mus musculus [13] = assay: Hypnotic activity in po dosed fasted C57BL/6N mouse assessed as decrease in latency of pentobarbital-induced sleep at 2 mg/kg, po administered 45 mins prior to pentobarbital-induction by polysomnographic analysis; assay type: functional, organism-based; parameters: dose 2 mg/kg
# Mus musculus [14] = assay: Hypnotic activity in po dosed fasted C57BL/6N mouse assessed as decrease in pentobarbital-induced non-rapid eye movement sleep duration at 2 mg/kg, po administered 45 mins prior to pentobarbital-induction by polysomnographic analysis; assay type: functional, organism-based; parameters: dose 2 mg/kg
# Mus musculus [15] = assay: Hypnotic activity in po dosed fasted C57BL/6N mouse assessed as effect on pentobarbital-induced rapid eye movement sleep duration at 2 mg/kg, po administered 45 mins prior to pentobarbital-induction by polysomnographic analysis; assay type: functional, organism-based; parameters: dose 2 mg/kg
# Mus musculus [16] = assay: Hypnotic activity in po dosed fasted C57BL/6N mouse assessed as increase in pentobarbital-induced non-rapid eye movement sleep duration at 2 mg/kg, po administered 45 mins prior to pentobarbital-induction measured up to 2 hrs by polysomnographic analysis; assay type: functional, organism-based; parameters: dose 2 mg/kg
# Mus musculus [17] = assay: Hypnotic activity in po dosed fasted C57BL/6N mouse assessed as change in pentobarbital-induced non-rapid eye movement sleep duration at 2 mg/kg, po administered 45 mins prior to pentobarbital-induction measured up to 3 hrs by polysomnographic analysis; assay type: functional, organism-based; parameters: dose 2 mg/kg
# Mus musculus [18] = assay: Hypnotic activity in po dosed fasted C57BL/6N mouse assessed as change in pentobarbital-induced rapid eye movement sleep duration at 2 mg/kg, po administered 45 mins prior to pentobarbital-induction measured up to 3 hrs by polysomnographic analysis; assay type: functional, organism-based; parameters: dose 2 mg/kg
# Mus musculus [19] = assay: Hypnotic activity in po dosed fasted C57BL/6N mouse assessed as decrease in pentobarbital-induced non-rapid eye movement sleep EEG delta activity at 2 mg/kg, po administered 45 mins prior to pentobarbital-induction by polysomnographic analysis; assay type: functional, organism-based; parameters: dose 2 mg/kg
# Mus musculus [20] = assay: Hypnotic activity in fasted C57BL/6N mouse assessed as increase in pentobarbital-induced sleep duration at 0.5 mg/kg, po administered 45 mins prior to pentobarbital-induction coadministered with flumazenil by polysomnographic analysis; assay type: functional, organism-based; parameters: dose 0.5 mg/kg
# Mus musculus [21] = assay: Hypnotic activity in fasted C57BL/6N mouse assessed as increase in pentobarbital-induced sleep duration at 2 mg/kg, po administered 45 mins prior to pentobarbital-induction coadministered with flumazenil by polysomnographic analysis; assay type: functional, organism-based; parameters: dose 2 mg/kg
# Mus musculus [22] = assay: Hypnotic activity in fasted C57BL/6N mouse assessed as decrease in pentobarbital-induced sleep latency at 2 mg/kg, po administered 45 mins prior to pentobarbital-induction coadministered with flumazenil by polysomnographic analysis; assay type: functional, organism-based; parameters: dose 2 mg/kg
smiles,measurement,setting,value
CC(C)=CCc1cc([C@@H]2CC(=O)c3ccc(O)c(CC=C(C)C)c3O2)ccc1O [GLABROL],Ki,[1],1.63 µM
same,Activity,Mus musculus [2],Dose-dependent effect
same,Activity,Mus musculus [3],Dose-dependent effect
same,Activity,Mus musculus [4],Active
same,Activity,Mus musculus [5],Active
same,Activity,Mus musculus [6],inactive
same,Activity,Mus musculus [7],inactive
Cc1ccc(-c2nc3ccc(C)cn3c2CC(=O)N(C)C)cc1,Activity,Mus musculus [8],inactive
same,Activity,Mus musculus [9],Active
same,Activity,Mus musculus [10],Active
same,Activity,Mus musculus [11],inactive
same,Activity,Mus musculus [12],inactive
CN1C(=O)CN=C(c2ccccc2)c2cc(Cl)ccc21,Activity,Mus musculus [13],Active
same,Activity,Mus musculus [14],Active
same,Activity,Mus musculus [15],inactive
same,Activity,Mus musculus [16],Active
same,Activity,Mus musculus [17],inactive
same,Activity,Mus musculus [18],inactive
same,Activity,Mus musculus [19],Active
same,Activity,Mus musculus [20],inactive
same,Activity,Mus musculus [21],inactive
same,Activity,Mus musculus [22],inactive
